# Assays:
# [1] = test system: B16 murine melanoma and C26 murine colon carcinoma; assay: tumor growth in B16 or C26-tumor bearing mice; assay type: in vivo; details: i.v. 20 mg/kg, between day 7 and day 14, after a second injection at day 7
# Method: B16 murine melanoma and C26 murine colon carcinoma cells were cultured at 37° C. in a 5% CO2-containing humidified atmosphere in DMEM medium (Gibco, Breda, The Netherlands) containing 10% (v/v) fetal calf serum supplemented with 2 mM L-glutamine, 100 IU/ml penicillin, 100 microgram/ml streptomycin and 0.25 microgram/ml amphotericin B (Gibco). Male Balb/c and C57B1/6 mice (6-8 weeks of age) were obtained from Charles River, kept in standard housing with standard rodent chow and water available ad libitum, and a 12 h light/dark cycle. Experiments were performed according to national regulations and approved by the local animal experiments ethical committee. Mice received a single intravenous injection of an indicated dose of free caffeic acid or liposomal caffeic acid prepared in Example 1 at the time when the tumor became palpable. At 7 days after treatment, tumor size was measured and tumor volume calculated according to the equation V=0.52×a^2×b, wherein a is the smallest and b is the largest superficial diameter. […] Tumor size was measured regularly, and tumor volume was calculated as described above. For the statistical analysis, data were analysed by one-way ANOVA with Dunnett's post test using GraphPad InStat version 3.05 for Windows, GraphPad Software (San Diego, USA). […] Spearman rank correlation coefficient was calculated to identify dose-response. […]
# cells = details: 80 micomoles of naringenin per liter, for 24 hours; cited from earlier work
# [2] = oral ingestion, best case scenario; cited from earlier work
# [3] = dietary (ingested) polyphenols; cited from earlier work
smiles,measurement,setting,value
"O=C(O)/C=C/c1ccc(O)c(O)c1 [free caffeic acid, caffeic acid]",effect on tumor volume,[1],did not reduce tumor volume
O=C1C[C@@H](c2ccc(O)cc2)Oc2cc(O)cc(O)c21 [naringenin],reduction of hydroxyl damage to the DNA,cells,24%
same,ingested amount absorbed in the human gastrointestinal tract,[2],≤ 15%
O=c1c(O)c(-c2ccc(O)c(O)c2)oc2cc(O)cc(O)c12 [quercetin],bioavailability,[3],1-5%

# Source: patent US20100143452A1, “POLYPHENOL CONTAINING COMPOSITIONS” (Universiteit Utrecht Holding B.V., priority 2006, published 2010)
